Data reported in ChEMBL document CHEMBL1938312, “Design and combinatorial synthesis of a novel kinase-focused library using click chemistry-based fragment assembly” (Bioorg Med Chem Lett, 2012).
Activity calls are given as the source filed them. The calls are words filed in the database; no cut-off is given here.

Assays:
[1] = biological target: Tyrosine-protein kinase ABL1 (Homo sapiens) (UniProt P00519); assay: Inhibition of Abl at 10 uM by colorimetric analysis
[2] = biological target: Epidermal growth factor receptor (Homo sapiens) (UniProt P00533); assay: Inhibition of EGFR at 10 uM by colorimetric analysis
Epidermal growth factor receptor (Homo sapiens), sequence (P00533 whole entry): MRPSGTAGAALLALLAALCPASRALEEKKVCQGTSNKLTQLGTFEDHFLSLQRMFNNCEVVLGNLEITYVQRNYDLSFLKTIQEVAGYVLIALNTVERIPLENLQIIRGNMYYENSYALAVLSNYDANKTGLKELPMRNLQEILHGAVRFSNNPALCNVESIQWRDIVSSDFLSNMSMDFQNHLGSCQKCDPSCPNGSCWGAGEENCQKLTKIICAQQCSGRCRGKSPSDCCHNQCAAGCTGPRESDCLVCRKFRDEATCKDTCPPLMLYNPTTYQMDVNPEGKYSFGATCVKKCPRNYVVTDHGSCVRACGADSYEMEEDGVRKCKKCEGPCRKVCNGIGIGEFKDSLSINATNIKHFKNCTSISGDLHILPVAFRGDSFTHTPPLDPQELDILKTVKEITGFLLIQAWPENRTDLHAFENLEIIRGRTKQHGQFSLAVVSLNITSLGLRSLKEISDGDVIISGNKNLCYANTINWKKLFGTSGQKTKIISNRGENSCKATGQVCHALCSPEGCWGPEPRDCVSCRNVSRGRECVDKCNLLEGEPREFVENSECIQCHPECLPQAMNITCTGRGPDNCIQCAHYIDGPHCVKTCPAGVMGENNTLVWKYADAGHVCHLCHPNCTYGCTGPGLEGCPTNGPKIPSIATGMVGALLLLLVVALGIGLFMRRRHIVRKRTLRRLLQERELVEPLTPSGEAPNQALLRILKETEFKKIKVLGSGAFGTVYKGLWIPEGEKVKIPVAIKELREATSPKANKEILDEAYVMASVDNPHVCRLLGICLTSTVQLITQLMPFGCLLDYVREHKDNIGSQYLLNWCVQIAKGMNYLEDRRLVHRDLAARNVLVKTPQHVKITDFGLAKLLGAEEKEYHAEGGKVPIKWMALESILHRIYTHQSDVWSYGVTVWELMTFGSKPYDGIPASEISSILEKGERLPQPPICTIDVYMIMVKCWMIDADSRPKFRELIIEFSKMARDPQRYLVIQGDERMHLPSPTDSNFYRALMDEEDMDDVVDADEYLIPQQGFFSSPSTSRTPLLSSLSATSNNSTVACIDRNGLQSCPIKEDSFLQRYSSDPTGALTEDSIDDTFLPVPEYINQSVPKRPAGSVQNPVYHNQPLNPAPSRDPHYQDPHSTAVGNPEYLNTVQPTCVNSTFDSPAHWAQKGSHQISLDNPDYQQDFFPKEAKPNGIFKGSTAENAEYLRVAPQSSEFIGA

[3] = biological target: Fibroblast growth factor receptor 1 (Homo sapiens) (UniProt P11362); assay: Inhibition of FGFR1 at 10 uM by colorimetric analysis
Fibroblast growth factor receptor 1 (Homo sapiens), sequence (P11362 22-822 limits assumed): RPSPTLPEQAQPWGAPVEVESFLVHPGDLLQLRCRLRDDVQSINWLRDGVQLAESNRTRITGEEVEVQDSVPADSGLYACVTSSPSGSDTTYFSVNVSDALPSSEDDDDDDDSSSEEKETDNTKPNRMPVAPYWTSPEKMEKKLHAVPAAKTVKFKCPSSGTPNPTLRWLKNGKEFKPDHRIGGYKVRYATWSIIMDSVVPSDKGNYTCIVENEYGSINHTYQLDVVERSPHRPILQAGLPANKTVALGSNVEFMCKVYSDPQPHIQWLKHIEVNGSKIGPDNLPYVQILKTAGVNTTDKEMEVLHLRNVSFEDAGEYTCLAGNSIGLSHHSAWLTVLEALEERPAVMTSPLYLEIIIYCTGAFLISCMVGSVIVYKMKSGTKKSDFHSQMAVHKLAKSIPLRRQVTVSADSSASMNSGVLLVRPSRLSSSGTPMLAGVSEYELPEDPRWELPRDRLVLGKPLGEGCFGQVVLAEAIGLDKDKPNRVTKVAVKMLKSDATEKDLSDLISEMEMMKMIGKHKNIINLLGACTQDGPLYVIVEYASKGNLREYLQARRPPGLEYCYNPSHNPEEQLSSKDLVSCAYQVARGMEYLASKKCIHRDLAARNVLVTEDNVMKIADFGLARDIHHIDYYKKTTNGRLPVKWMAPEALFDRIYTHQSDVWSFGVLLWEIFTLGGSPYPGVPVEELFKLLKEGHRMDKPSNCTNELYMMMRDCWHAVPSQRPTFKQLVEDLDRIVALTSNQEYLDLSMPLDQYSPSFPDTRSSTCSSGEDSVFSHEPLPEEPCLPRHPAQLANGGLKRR

[4] = biological target: Receptor-type tyrosine-protein kinase FLT3 (Homo sapiens) (UniProt P36888); assay: Inhibition of FLT3 at 10 uM by colorimetric analysis
Receptor-type tyrosine-protein kinase FLT3 (Homo sapiens), sequence (P36888 whole entry): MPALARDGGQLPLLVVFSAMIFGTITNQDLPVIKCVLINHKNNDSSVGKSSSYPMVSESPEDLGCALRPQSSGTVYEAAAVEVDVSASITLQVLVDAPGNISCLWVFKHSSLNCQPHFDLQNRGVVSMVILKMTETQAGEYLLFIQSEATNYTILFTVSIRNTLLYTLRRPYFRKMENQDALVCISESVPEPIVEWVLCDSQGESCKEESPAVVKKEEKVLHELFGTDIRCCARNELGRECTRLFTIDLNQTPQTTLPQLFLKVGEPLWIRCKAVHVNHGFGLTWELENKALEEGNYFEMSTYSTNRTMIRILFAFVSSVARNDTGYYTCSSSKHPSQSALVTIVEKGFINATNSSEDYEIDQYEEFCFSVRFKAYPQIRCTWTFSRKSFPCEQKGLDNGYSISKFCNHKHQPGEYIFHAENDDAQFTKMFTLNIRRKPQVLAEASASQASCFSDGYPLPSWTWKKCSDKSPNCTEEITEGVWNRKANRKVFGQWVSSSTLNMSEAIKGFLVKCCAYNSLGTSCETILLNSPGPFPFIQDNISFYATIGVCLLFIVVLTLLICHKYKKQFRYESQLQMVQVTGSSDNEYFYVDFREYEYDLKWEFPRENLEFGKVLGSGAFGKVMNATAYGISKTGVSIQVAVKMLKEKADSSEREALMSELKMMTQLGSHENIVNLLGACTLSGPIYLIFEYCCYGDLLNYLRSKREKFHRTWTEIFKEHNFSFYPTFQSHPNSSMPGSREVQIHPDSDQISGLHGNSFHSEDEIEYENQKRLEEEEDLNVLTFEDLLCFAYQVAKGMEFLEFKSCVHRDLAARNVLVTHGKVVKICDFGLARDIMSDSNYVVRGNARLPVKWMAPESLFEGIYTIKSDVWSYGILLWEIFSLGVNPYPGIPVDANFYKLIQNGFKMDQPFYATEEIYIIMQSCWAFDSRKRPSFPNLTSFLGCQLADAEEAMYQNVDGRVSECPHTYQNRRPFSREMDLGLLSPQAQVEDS

[5] = biological target: Vascular endothelial growth factor receptor 2 (Homo sapiens) (UniProt P35968); assay: Inhibition of KDR at 10 uM by colorimetric analysis
[6] = biological target: Hepatocyte growth factor receptor (Homo sapiens) (UniProt P08581); assay: Inhibition of MET at 10 uM by colorimetric analysis
[7] = biological target: Proto-oncogene tyrosine-protein kinase Src (Homo sapiens) (UniProt P12931); assay: Inhibition of SRC at 10 uM by colorimetric analysis
Proto-oncogene tyrosine-protein kinase Src (Homo sapiens), sequence (P12931 2-536 limits assumed): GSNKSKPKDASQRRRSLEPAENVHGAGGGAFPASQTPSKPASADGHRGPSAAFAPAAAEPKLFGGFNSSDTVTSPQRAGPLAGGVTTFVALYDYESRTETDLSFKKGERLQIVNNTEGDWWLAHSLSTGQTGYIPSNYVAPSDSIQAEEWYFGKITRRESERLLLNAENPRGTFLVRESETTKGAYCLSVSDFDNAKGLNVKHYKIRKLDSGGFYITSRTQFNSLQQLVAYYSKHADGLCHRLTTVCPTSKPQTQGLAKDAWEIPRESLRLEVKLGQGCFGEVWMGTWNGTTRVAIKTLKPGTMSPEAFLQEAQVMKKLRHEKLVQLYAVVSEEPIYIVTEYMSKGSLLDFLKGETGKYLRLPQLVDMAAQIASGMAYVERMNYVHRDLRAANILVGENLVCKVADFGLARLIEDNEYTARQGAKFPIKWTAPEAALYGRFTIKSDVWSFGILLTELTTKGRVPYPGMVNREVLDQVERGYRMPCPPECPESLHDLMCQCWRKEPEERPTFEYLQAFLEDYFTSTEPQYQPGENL

[8] = biological target: Angiopoietin-1 receptor (Homo sapiens) (UniProt Q02763); assay: Inhibition of TIE2 at 10 uM by colorimetric analysis
[9] = biological target: T1, Tyrosine-protein kinase receptor TYRO3 (Homo sapiens) (UniProt Q06418); assay: Inhibition of TYRO3 at 10 uM by colorimetric analysis
T1 sequence (whole entry): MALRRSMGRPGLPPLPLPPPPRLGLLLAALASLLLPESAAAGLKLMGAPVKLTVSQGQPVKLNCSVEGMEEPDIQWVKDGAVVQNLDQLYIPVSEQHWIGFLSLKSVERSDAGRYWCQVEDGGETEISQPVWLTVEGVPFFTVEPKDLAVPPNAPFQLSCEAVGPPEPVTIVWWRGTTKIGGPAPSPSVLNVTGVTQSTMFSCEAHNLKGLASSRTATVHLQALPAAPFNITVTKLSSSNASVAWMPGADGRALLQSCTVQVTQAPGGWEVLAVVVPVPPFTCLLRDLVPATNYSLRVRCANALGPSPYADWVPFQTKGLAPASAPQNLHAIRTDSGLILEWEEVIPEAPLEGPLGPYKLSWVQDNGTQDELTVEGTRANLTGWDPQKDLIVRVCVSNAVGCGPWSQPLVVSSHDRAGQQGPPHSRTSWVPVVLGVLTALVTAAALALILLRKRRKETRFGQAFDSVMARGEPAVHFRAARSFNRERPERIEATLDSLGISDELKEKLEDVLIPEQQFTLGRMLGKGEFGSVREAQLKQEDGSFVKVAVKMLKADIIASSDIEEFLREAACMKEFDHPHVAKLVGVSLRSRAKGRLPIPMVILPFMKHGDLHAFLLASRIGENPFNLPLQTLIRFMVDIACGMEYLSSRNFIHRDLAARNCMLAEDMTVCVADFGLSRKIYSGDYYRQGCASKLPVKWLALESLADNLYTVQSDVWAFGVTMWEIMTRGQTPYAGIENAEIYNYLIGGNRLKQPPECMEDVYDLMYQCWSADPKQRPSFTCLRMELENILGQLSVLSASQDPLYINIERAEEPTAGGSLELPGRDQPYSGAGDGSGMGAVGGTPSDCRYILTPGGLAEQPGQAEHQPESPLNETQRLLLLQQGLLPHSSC

[10] = biological target: RAC-alpha serine/threonine-protein kinase (Homo sapiens) (UniProt P31749); assay: Inhibition of AKT1 at 10 uM by colorimetric analysis
RAC-alpha serine/threonine-protein kinase (Homo sapiens), sequence (P31749 whole entry): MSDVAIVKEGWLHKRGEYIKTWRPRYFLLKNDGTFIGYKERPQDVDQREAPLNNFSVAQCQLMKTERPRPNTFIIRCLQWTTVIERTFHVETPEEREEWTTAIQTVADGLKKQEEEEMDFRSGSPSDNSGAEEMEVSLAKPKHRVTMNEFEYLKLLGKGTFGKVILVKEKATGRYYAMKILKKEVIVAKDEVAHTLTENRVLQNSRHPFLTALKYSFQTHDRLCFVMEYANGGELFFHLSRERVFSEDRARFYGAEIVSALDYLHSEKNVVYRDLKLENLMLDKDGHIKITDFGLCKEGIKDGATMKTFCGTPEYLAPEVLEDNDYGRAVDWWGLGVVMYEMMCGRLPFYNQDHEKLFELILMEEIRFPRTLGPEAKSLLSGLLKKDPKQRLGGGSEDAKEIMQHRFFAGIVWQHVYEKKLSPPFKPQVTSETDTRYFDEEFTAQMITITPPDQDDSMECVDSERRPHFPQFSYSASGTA

[11] = biological target: 5'-AMP-activated protein kinase catalytic subunit alpha-1 (Homo sapiens) (UniProt Q13131); assay: Inhibition of AMPKalpha1 at 10 uM by colorimetric analysis
5'-AMP-activated protein kinase catalytic subunit alpha-1 (Homo sapiens), sequence (Q13131 whole entry, looked up): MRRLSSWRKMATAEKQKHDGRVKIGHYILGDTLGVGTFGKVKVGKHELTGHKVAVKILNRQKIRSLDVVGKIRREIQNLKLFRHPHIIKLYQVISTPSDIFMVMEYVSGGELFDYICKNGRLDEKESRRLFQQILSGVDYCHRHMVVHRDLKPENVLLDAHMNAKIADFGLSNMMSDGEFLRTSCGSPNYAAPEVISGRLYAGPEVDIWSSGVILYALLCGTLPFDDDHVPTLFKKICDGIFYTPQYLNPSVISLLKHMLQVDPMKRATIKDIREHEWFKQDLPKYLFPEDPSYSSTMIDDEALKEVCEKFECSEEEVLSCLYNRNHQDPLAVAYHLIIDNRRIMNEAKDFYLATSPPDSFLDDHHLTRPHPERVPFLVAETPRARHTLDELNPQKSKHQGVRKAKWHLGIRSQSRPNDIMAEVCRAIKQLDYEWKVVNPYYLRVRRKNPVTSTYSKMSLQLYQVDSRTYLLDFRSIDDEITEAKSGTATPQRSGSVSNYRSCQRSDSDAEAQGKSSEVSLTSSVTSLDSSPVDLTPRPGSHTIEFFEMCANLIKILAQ

[12] = biological target: 5'-AMP-activated protein kinase subunit gamma-1 (Homo sapiens) (UniProt P54619); assay: Inhibition of AMPKgamma1 at 10 uM by colorimetric analysis
5'-AMP-activated protein kinase subunit gamma-1 (Homo sapiens), sequence (P54619 whole entry): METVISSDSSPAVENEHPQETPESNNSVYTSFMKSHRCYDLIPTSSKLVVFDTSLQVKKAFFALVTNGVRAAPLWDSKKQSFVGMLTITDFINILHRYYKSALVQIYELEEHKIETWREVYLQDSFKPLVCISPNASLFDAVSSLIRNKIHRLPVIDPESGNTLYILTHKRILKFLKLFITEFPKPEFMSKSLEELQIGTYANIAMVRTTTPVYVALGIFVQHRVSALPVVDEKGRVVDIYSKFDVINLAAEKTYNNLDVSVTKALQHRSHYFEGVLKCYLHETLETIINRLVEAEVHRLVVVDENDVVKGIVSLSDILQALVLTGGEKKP

[13] = biological target: Death-associated protein kinase 1 (Homo sapiens) (UniProt P53355); assay: Inhibition of DAPK1 at 10 uM by colorimetric analysis
[14] = biological target: T2, Serine/threonine-protein kinase D2 (Homo sapiens) (UniProt Q9BZL6); assay: Inhibition of PKD2 at 10 uM by colorimetric analysis
T2 sequence (whole entry): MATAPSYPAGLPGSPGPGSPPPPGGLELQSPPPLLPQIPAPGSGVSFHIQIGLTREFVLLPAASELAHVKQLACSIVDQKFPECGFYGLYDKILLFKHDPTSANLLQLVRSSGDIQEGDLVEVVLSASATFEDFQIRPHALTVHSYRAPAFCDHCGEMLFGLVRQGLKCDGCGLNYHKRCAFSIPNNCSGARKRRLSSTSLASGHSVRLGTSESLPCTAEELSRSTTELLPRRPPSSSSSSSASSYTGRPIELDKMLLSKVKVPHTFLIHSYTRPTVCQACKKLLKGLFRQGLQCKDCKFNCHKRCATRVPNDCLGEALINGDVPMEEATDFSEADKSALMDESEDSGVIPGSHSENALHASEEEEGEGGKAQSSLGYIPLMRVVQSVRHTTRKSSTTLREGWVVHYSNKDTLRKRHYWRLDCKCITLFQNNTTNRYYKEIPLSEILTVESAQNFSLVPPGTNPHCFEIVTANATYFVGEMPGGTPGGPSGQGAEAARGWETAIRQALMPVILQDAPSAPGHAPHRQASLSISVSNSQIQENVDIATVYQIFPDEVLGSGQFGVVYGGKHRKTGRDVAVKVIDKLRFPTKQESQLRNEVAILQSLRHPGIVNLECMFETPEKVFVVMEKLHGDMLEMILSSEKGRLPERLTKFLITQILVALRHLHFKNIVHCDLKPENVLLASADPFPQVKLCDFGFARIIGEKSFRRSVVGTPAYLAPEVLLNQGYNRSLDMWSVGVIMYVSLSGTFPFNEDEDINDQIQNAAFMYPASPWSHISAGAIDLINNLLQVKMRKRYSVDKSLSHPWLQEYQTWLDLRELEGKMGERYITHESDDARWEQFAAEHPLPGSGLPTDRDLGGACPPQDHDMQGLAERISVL

SMILES	inhibition [1]	inhibition [2]	inhibition [3]	inhibition [4]	inhibition [5]	inhibition [6]	inhibition [7]	inhibition [8]	inhibition [9]	inhibition [10]	inhibition [11]	inhibition [12]	inhibition [13]	inhibition [14]
Clc1ccc(-n2cc(-c3ccncc3)nn2)cc1	inactive	inactive	inactive	Active	inactive	inactive	inactive	inactive	inactive	Active	Active	Active	Active	Active
Clc1cccc(-n2cc(-c3ccncc3)nn2)c1	inactive	inactive	inactive	Active	inactive	inactive	inactive	inactive	inactive	Active	Active	Active	Active	Active
Clc1ccc(-n2nncc2-c2ccncc2)cc1	inactive	inactive	inactive	Active	inactive	inactive	inactive	inactive	inactive	Active	Active	Active	Active	Active
Clc1cccc(-n2nncc2-c2ccncc2)c1	inactive	inactive	inactive	Active	inactive	inactive	inactive	inactive	inactive	Active	Active	Active	Active	Active
